Assays:
GSK3α(h) = GSK3α(h) (Homo sapiens, UniProt P49840); experiment: Protein kinase inhibition assay; format: biochemical; conditions: read-out: percent residual activity of GSK3α(h)
Procedure: (§1) Certain compounds were tested for activity in protein kinase inhibition assays. All substrates were dissolved and diluted to working stocks in de-ionized water, apart from histone H1 (10× working stock in 20 mM MOPS pH 7.0), PDKtide (10× working stock in 50 mM Tris pH 7.0) ATF2 (which is typically stored at a 20× working stock in 50 mM Tris pH 7.5, 150 mM NaCl, 0.1 mM EGTA, 0.03% Brij-35, 50% glycerol, 1 mM benzamidine, 0.2 mM PMSF and 0.1% R-mercaptoethanol), KKLNRTLSFAEPG (SEQ ID NO:203) and RRRLSFAEPG (SEQ ID NO:204) (50 mM HEPES pH 7.4) and GGEEEEYFELVKKKK (SEQ ID NO:205) (20 mM MOPS pH 7.0). All kinases were pre-diluted to a 10× working concentration prior to addition into the assay. The composition of the dilution buffer for each kinase is detailed below.
In a final reaction volume of 25 μl, GSK3α (h) (5-10 mU) is incubated with 8 mM MOPS pH 7.0, 0.2 mM EDTA, 20 μM […](p)EDEEE (SEQ ID NO:216) (phospho GS2 peptide), 10 mM MgAcetate and [gamma-33P-ATP] (specific activity approx. 500 cpm/pmol, concentration as required). The reaction is initiated by the addition of the MgATP mix. After incubation for 40 minutes at room temperature, the reaction is stopped by the addition of 5 μl of a 3% phosphoric acid solution. […]

HCT116 cells = experiment: Protein synthesis (3H-methionine incorporation); format: cell-based; conditions: at the tested concentrations
Procedure: Effects of compound A-1 and compound B-1 on DNA synthesis, RNA synthesis and protein synthesis were determined in HCT116 cells. HCT116 cells were plated overnight at 100,000 cells per mL. Next day cells were treated with increasing amounts of either compound A-1 or compound B-1 followed by one hour incubation with BrdU label (from a BrdU Cell proliferation Assay Kit, Calbiochem) to monitor DNA synthesis; […] of ^3H-uridine to monitor total RNA synthesis; […] of ^3H-methionine to monitor protein synthesis or plain media to monitor RNA Polymerase II-dependent RNA synthesis. DNA synthesis was assessed using a BrdU-ELISA (BrdU Cell proliferation Assay Kit, Calbiochem). To measure total RNA synthesis, total RNA from treated cells was isolated with a RNease kit (QIAGEN), levels of total RNA were assessed with Ribogreen reagent (Invitrogen) and the newly synthesized tritiated RNA was measured in a scintillation Counter (Perkin Elmer). To measure effects on protein synthesis, cells were lysed in a RIPA buffer, and total protein was precipitated with 10% TCA on a glass-filters. Newly synthesized tritiated protein was measured in a scintillation Counter (Perkin Elmer). Effects of drugs on […] RNA synthesis were assessed by monitoring levels of a c-myc mRNA, which has a relatively short half-life of approximately 30 minutes, by Taqman qRT-PCR (ABI).

FGFR1(h) = FGFR1(h) (Homo sapiens, UniProt P11362); experiment: Protein kinase inhibition assay; format: biochemical; conditions: read-out: percent residual activity of FGFR1(h)
FGFR1(h), sequence (P11362 22-822): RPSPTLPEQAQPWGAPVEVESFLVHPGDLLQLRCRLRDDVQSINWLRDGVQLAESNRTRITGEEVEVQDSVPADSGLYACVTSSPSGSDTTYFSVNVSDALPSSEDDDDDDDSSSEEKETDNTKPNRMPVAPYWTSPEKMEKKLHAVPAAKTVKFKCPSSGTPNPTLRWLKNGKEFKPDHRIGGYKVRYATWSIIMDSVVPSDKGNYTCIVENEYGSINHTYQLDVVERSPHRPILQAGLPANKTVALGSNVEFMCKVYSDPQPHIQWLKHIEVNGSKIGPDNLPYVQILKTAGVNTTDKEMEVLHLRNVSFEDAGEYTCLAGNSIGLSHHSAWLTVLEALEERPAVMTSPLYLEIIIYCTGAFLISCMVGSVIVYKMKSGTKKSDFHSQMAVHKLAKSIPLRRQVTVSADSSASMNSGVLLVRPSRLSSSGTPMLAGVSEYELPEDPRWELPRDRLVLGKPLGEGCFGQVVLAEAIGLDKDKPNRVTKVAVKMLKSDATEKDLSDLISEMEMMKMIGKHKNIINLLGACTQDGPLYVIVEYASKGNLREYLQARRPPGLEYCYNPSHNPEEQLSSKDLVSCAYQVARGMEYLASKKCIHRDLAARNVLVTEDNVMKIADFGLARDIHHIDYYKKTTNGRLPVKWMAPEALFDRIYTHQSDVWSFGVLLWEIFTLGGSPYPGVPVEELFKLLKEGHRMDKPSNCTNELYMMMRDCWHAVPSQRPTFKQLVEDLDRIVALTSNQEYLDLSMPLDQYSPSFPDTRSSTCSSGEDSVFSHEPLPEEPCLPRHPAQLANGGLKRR
Procedure: as §1
(§2) In a final reaction volume of 25 μl, FGFR1 (h) (5-10 mU) is incubated with 8 mM MOPS pH 7.0, 0.2 mM EDTA, 250 μM KKKSPGEYVNIEFG (SEQ ID NO:207), 10 mM MgAcetate and [y-33P-ATP] (specific activity approx. 500 cpm/pmol, concentration as required). The reaction is initiated by the addition of the MGATP mix. After incubation for 40 minutes at room temperature, the reaction is stopped by the addition of 5 μl of a 3% phosphoric acid solution. 10 μl of the reaction is then spotted onto a P30 filtermat and washed three times for 5 minutes in 75 mM phosphoric acid and once in methanol prior to drying and scintillation counting.

EphB3(h) = EphB3(h) (Homo sapiens, UniProt P54753); experiment: Protein kinase inhibition assay; format: biochemical; conditions: read-out: percent residual activity of EphB3(h)
EphB3(h), sequence (P54753 34-998): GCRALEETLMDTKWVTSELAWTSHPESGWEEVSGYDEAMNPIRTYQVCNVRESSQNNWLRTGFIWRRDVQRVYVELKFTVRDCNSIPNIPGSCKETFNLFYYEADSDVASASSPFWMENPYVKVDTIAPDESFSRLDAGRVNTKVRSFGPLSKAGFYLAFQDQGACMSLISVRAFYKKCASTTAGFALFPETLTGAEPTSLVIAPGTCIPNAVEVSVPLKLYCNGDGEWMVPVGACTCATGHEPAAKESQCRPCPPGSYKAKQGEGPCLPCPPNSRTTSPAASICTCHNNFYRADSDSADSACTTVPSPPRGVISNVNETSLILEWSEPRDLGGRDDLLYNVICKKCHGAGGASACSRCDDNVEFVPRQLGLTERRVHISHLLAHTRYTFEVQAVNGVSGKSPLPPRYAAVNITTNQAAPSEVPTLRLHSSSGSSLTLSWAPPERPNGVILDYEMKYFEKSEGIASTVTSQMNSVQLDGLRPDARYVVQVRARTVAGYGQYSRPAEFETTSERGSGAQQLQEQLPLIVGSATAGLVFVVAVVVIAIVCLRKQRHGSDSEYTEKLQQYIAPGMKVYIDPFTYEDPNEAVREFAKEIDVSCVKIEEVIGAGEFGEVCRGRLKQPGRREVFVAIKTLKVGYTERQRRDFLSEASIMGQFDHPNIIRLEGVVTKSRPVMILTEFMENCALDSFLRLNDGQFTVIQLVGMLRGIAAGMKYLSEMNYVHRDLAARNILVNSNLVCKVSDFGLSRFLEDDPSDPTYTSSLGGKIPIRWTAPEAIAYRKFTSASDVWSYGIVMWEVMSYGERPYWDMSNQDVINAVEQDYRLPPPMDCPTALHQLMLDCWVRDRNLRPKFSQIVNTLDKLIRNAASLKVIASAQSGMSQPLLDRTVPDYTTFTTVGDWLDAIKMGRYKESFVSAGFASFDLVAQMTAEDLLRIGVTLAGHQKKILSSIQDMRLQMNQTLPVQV
Procedure: as §1
as §2, with “EphB3” for “FGFR1”, “10 mM MnCl2, 0.1 mg/ml poly (Glu, Tyr) 4:1,” for “250 μM KKKSPGEYVNIEFG (SEQ ID NO:207),”, “[gamma-33P-ATP]” for “[y-33P-ATP]”, “MgATP” for “MGATP”, “Filtermat A” for “P30 filtermat”

KDR(h) = KDR(h) (Homo sapiens, UniProt P35968); experiment: Protein kinase inhibition assay; format: biochemical; conditions: read-out: percent residual activity of KDR(h)
KDR(h), sequence (P35968 20-1356): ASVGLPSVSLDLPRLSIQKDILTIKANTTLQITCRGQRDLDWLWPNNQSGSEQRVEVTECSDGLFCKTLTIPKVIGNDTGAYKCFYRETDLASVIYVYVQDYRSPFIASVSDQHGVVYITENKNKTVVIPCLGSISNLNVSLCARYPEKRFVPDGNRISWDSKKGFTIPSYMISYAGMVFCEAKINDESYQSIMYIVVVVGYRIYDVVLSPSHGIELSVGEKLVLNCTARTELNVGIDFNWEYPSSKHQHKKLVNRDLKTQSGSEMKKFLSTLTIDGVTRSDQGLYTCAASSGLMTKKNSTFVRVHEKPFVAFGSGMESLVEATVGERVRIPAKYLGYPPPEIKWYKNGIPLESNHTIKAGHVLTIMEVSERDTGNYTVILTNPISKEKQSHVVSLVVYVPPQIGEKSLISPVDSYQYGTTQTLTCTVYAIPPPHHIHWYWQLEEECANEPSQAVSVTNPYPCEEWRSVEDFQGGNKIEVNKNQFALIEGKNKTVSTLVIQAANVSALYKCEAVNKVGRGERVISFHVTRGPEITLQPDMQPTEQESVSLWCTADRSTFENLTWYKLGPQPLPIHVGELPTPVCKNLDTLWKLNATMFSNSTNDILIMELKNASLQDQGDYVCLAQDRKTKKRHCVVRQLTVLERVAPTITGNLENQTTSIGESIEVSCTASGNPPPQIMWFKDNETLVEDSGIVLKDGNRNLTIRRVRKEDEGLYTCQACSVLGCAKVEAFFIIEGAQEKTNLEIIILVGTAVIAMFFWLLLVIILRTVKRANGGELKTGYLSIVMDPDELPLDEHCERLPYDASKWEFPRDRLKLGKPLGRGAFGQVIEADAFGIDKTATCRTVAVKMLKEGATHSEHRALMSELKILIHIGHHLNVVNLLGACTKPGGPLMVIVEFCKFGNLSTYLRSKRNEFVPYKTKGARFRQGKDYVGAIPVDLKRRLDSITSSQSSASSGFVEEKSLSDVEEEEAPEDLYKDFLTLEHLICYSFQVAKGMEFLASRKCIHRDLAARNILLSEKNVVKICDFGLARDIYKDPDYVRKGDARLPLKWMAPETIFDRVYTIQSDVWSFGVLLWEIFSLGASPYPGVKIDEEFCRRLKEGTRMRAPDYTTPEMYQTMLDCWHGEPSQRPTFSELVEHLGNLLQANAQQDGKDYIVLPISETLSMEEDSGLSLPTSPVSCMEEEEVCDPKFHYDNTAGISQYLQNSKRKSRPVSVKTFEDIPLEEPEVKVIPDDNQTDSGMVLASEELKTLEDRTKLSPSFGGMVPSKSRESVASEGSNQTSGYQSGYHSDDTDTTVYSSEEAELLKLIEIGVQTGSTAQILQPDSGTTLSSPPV
Procedure: as §1
as §2, with “KDR” for “FGFR1”, “0.33 mg/ml myelin basic protein,” for “250 μM KKKSPGEYVNIEFG (SEQ ID NO:207),”, “MgATP” for “MGATP”

MST2(h) = MST2(h) (Homo sapiens, UniProt Q13188); experiment: Protein kinase inhibition assay; format: biochemical; conditions: read-out: percent residual activity of MST2(h)
MST2(h), sequence (Q13188 whole entry): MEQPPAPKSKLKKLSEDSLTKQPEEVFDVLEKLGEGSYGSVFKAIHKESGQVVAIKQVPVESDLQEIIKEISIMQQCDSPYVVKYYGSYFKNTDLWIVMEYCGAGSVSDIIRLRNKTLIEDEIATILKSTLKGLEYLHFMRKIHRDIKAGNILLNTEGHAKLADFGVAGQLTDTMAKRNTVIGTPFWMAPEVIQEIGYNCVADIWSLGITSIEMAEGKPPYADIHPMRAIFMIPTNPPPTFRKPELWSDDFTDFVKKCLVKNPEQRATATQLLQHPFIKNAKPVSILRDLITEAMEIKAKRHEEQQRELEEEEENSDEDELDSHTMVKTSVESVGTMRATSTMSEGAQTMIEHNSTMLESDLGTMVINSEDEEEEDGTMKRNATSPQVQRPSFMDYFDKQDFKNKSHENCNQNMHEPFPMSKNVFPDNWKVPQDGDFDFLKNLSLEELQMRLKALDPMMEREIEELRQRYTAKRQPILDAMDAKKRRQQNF
Procedure: as §1
as §2, with “MST2” for “FGFR1”, “0.33 mg/ml myelin basic protein,” for “250 μM KKKSPGEYVNIEFG (SEQ ID NO:207),”, “[gamma-33P-ATP]” for “[y-33P-ATP]”, “MgATP” for “MGATP”

GSK3α(h), sequence (P49840 whole entry): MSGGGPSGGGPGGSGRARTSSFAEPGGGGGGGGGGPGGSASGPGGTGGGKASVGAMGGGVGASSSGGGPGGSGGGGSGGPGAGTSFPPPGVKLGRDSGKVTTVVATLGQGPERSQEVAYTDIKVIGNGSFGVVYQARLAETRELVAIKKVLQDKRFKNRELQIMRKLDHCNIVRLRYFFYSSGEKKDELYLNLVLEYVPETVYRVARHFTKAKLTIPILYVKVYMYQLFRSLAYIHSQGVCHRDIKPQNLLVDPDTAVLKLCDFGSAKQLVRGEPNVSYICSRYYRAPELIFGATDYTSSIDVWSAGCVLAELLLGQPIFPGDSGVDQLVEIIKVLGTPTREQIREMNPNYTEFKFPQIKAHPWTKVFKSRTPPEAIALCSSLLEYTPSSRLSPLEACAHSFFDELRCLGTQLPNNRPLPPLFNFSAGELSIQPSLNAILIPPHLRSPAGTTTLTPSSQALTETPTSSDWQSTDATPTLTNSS

remaining activity at 2.5 µM (GSK3α(h)) [%] | remaining activity at 2.5 µM (FGFR1(h)) [%] | remaining activity at 2.5 µM (EphB3(h)) [%] | remaining activity at 2.5 µM (KDR(h)) [%] | remaining activity at 2.5 µM (MST2(h)) [%] | Compound | effect on protein synthesis (HCT116 cells)
89 | 118 | 115 | 95 | 106 | CC(=O)N1CCN(c2ccc3c(=O)c(C(=O)NCCN4CCCC4)c4n(C)c5ccccc5n4c3n2)CC1 [Compound B-1] | no measureable effect
101 | 84 | 111 | 90 | 76 | CN1CCCC1CCNC(=O)c1cn2c3c(c(N4CCC(c5cnccn5)C4)c(F)cc3c1=O)Oc1cc3ccccc3cc1-2 (stereo not drawn) [Compound A-1] | no measureable effect
